The test system of this series is INS-1 cells. The series can be described thus: Live/dead two-colour fluorescence cytometry of INS-1 cells. It is filed as cell-based, rat. Here is the method: Because GC7 is known to be inactivated by the action amine oxidases, which are abundant in serum, typical studies with GC7 in the literature have used aminoguanidine to inhibit amine oxidases (16). […] To rule out possible adverse effects of GC7 on cell viability, quantitative 2 color fluorescence analysis of live (calcein-AM-positive) and dead (ethidium homodimer-1-positive) cells were performed using fluorescence cytometry.
For flow cytometry studies, INS-1 cells (serum starved or pretreated with GC7 as indicated in the figures) were stained with calcein-AM and ethidium homodimer 1 (Live/Dead® kit, Invitrogen) for 30 minutes, and 30,000 cells/sample were analyzed for green (living cells) and red (dead cells) fluorescence using a FACS Calibur (BD bioscience) instrument. For cell cycle analysis, 10^6 cells were washed in PBS and fixed in ice-cold 70% ethanol for 1 hour. After washing in PBS, cells were re-suspended in Guava cell cycle reagent (Millipore) and incubated at room temperature for 30 minutes. Intercalation of propidium iodide into cellular DNA was quantitated using a FACS Calibur instrument and the data analyzed for cell cycle status using Modfit software.

Molecules are shown by their SMILES.

On to `NCCCCCCCN=C(N)N` [GC7], for which the “percentage of dead cells” value (125 μM GC7, 3 days exposure) came to 70%. Also, the “percentage of dead INS-1 cells” value (GC7 0 to 125 μM, overnight exposure, unaffected by concentration) is 4-5%.

Source of the values: US20120196918A1, “PREVENTING ISLET INFLAMMATION AND DYSFUNCTION AND MAINTAINING PROPER GLUCOSE LEVELS BY CONTROLLING eIF5A AND ITS HYPUSINATION” (priority 2009, published 2012).
